Assay results from patent US5935973A, “Heterocyclcarboxamide derivatives and their use as therapeutic agents” (Knoll Aktiengesellschaft, priority 1995, dated 1999).

Columns and labels:
5-HT1A receptors = target: T1, 5-HT1A receptors (Rattus norvegicus, UniProt P19327); experiment: inhibition of [3H]8-OH-DPAT binding to 5-HT1A receptors in rat hippocampal tissue; conditions: at 10^-6 M; rat hippocampus, [3H]8-OH-DPAT; read-out: % displacement of radio ligand, 5-HT1A
T1 construct: Hippocampal tissue from the brains of male Sprague-Dawley rats; from tissue; host or cells: rat hippocampus membranes
T1 sequence (P19327 1-422): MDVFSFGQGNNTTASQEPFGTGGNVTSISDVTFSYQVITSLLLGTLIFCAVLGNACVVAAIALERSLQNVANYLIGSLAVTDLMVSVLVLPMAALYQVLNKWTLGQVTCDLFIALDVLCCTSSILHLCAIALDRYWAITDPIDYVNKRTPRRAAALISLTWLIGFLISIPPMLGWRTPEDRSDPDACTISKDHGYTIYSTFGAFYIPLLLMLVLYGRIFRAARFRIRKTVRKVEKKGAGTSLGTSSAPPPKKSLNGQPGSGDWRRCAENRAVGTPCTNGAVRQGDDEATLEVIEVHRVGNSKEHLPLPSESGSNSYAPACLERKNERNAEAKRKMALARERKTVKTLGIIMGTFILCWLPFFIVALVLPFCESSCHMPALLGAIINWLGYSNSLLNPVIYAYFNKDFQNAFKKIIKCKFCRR
Procedure: Hippocampal tissue from the brains of male Sprague-Dawley rats (Charles River; weight range 150-250 g) was homogenised in ice-cold 50 mM Tris-HCl buffer (pH 7.7 when measured at 25° C., 1:40 w/v) and centrifuged at 30,000 g at 4° C. for 10 minutes. The pellet was rehomogenised in the same buffer, incubated at 37° C. for 10 minutes and centrifuged at 30,000 g at 4° C. for 10 minutes. The final pellet was resuspended in 50 mM Tris-HCl buffer (pH 7.7) containing 4 mM CaCl2, 0.1% L-ascorbic acid and 10 μM pargyline hydrochloride (equivalent to 6.25 mg wet weight of tissue/ml) and used immediately in the binding assay. Aliquots (400 μl; equivalent to 2.5 mg wet weight of tissue/tube) of this suspension were added to tubes containing the ligand (50 μl; 2 nM) and distilled water (50 μl total binding) or 5-HT (50 μl; 10 μM; non-specific binding) or test compound (50 μl; at a single concentration of 10^-6 M or at 10 concentrations ranging from 10^-11 -10^-3 M). The ligand was [^3 H]8-hydroxy-2-(dipropylamino)tetralin ([^3 H]8-OH-DPAT) and the mixture was incubated at 25° C. for 30 minutes before the incubation was terminated by rapid filtration.
(§1) The filters were washed with ice-cold Tris-HCl buffer and dried. The filters were punched out into vials, scintillation fluid added and radioactivity determined by liquid scintillation counting. The percentage displacement of specific binding of the tritiated ligand was calculated for the single concentration (10^-6 M) of test compound. Displacement curves were then produced for those compounds which displaced ≥50% of specific binding of the tritiated ligand at 10^-6 M using a range of concentrations of the compound. The concentration which gave 50% inhibition of specific binding (IC50) was obtained from the curve. The inhibition coefficient Ki was then calculated using the formula [formula] in which [ligand] is the concentration of the tritiated ligand used and KD is the equilibrium dissociation constant for the ligand.

α1-adrenoceptors = experiment: inhibition of [7-methoxy-3H]prazosin binding to α1-adrenoceptors in rat whole cortical tissue; conditions: at 10^-6 M; rat whole cortex, [7-methoxy-3H]prazosin; 30 min, 1 µM
Procedure: Whole cortical tissue from the brains of male Charles River CD rats weighing between 150-250 g were homogenised in ice-cold 50 mM Tris-HCl, pH 7.6 (at 25° C.; 1:40 w/v) and centrifuged at 1000 g at 4° C. for 10 minutes. The supernatant was centrifuged at 30,000 g at 4° C. for 10 minutes. The pellet was rehomogenised in 50 mM Tris-HCl, pH 7.6 (1:40 w/v) and centrifuged at 30,000 g at 4° C. for 10 minutes. The final pellet was resuspended in 50 mM Tris-HCl, pH 7.6 (equivalent to 12.5 mg wet weight of tissue/ml) and used immediately in the binding assay. Aliquots (400 μl; equivalent to 5 mg wet weight of tissue/tube) of this suspension were added to tubes containing the ligand (50 μl; 0.1 nM) and distilled water (50 μl; total binding) or phentolamine (50 μl; 5 μM; non-specific binding) or test compound (50 μl; at a single concentration of 10^-6 M or at 10 concentrations ranging from 10^-11 -10^-3 M). The ligand was [7-methoxy-^3 H]prazosin and the mixture was incubated at 30° C. for 30 minutes before the incubation was terminated by rapid filtration.
as §1

D2 dopamine receptors = target: T2, D2 dopamine receptors (Rattus norvegicus, UniProt P61169); experiment: inhibition of tritiated (S)-sulpiride binding to D2 dopamine receptors in rat striatal tissue; conditions: at 10^-6 M; rat striatum, tritiated (S)-sulpiride; read-out: % displacement of radio ligand, D2
T2 construct: Striatal tissue from the brains of male Charles River CD rats; from tissue; host or cells: rat striatum membranes
T2 sequence (P61169 whole entry): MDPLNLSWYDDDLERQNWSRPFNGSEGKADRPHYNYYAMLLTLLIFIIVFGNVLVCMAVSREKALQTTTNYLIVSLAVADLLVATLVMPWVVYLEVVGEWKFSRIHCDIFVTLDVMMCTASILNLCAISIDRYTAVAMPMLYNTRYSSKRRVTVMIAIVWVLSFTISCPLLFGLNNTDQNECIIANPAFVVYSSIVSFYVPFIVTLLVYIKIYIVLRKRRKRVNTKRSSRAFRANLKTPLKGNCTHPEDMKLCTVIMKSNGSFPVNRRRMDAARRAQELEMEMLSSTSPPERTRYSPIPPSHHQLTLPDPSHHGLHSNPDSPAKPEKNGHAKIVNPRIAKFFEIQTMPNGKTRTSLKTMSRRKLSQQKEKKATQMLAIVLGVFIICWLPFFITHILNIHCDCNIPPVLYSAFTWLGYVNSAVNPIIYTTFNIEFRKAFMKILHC
Procedure: Striatal tissue from the brains of male Charles River CD rats weighing between 140-250 g were homogenised in ice-cold 50 mM Tris-HCl buffer (pH 7.7 when measured at 25° C.) and centrifuged at 40,000 g for 10 minutes. The pellet was resuspended in Tris salts buffer (50 mM Tris-HCl buffer containing 120 mM NaCl, 5 mM KCl, 2 mM CaCl2 and 1 mM MgCl2 with the addition of 6 mM ascorbic acid; pH 7.7 when measured at 25° C.), and again centrifuged at 40,000 g for 10 minutes. The final pellet was stored at -80° C. Before each test the pellet was resuspended in Tris salts buffer (equivalent to 2 mg wet weight of tissue/ml). Aliquots (720 μl; equivalent to 1.44 mg wet weight of tissue/tube) of this suspension were then added to tubes containing the ligand (40 μl; 1 nM) and Tris salts buffer (40 μl; total binding) or spiroperidol (40 μl; 10 nM; non-specific binding) or test compound (40 μl; at a single concentration of 10^-6 M or at 6 concentrations ranging from 10^-11 -10^-4 M). The ligand was tritiated (S)-sulpiride and the mixture was incubated at 4° C. for 40 minutes before the incubation was terminated by rapid filtration.
The filters were washed with ice-cold Tris-HCl buffer and dried. The filters were punched out in to vials, scintillation fluid added and were left for about 20 hours before being counted by scintillation spectrophotometry. The percentage displacement of specific binding of the tritiated ligand was calculated for the single concentration (10^-6 M) of test compound. Displacement curves were then produced over a range of concentrations for those compounds which displaced ≥50% of specific binding of the tritiated ligand at 10^-6 M. The concentration which gave a 50% inhibition of specific binding (IC50) was obtained from the curve. The inhibition coefficient Ki was then calculated using the formula [formula] in [ligand] is the concentration of the tritiated ligand used and KD is the 2 equilibrium dissociation constant for the ligand.

SMILES	inhibition at 1 µM (5-HT1A receptors)	% displacement of radio ligand, α1 (α1-adrenoceptors)	inhibition at 1 µM (D2 dopamine receptors)
CSc1ncccc1C(=O)NCC1CCN(C[C@H]2COc3ccc(Br)cc3O2)CC1 [Example 38, (S)-N-{[1-(7-bromo-1,4-benzodioxan-2-ylmethyl)-4-piperidyl]methyl}-2-(methylthio)pyridine-3-carboxamide]	88%	51%	99%
O=C(NCC1CCN(C[C@H]2COc3ccc(Br)cc3O2)CC1)c1cncc(Br)c1 [Example 39, (S)-5-bromo-N-{[1-(7-bromo-1,4-benzodioxan-2-ylmethyl)-4-piperidyl]methyl}pyridine-3-carboxamide]	85%	43%	87%
O=C(NCC1CCN(C[C@H]2COc3ccc(Cl)cc3O2)CC1)c1ccc(-n2cccc2)nc1 [Example 40, (S)-N-{[1-(7-chloro-1,4-benzodioxan-2-ylmethyl)-4-piperidyl]methyl}-6-(1-pyrrolyl)pyridine-3-carboxamide]	87%	60%	91%
CSc1ncccc1C(=O)NCC1CCN(C[C@H]2COc3ccc(Cl)cc3O2)CC1 [Example 41, (S)-N-{[1-(7-chloro-1,4-benzodioxan-2-ylmethyl)-4-piperidyl]methyl}-2-(methylthio)pyridine-3-carboxamide]	68%	29%	70%
O=C(NCC1CCN(C[C@H]2COc3ccc(Cl)cc3O2)CC1)c1cncc(Br)c1 [Example 42, (S)-5-bromo-N-{[1-(7-chloro-1,4-benzodioxan-2-ylmethyl)-4-piperidyl]methyl}pyridine-3-carboxamide]	92%	62%	91%
O=C(NCC1CCN(C[C@H]2COc3ccc(F)cc3O2)CC1)c1cccnc1 [Example 43, (S)-N-{[1-(7-fluoro-1,4-benzodioxan-2-ylmethyl)-4-piperidyl]methyl}pyridine-3-carboxamide]	76%	59%	68%
CSc1ncccc1C(=O)NCC1CCN(C[C@H]2COc3ccc(F)cc3O2)CC1 [Example 44, (S)-N-{[1-(7-fluoro-1,4-benzodioxan-2-ylmethyl)-4-piperidyl]methyl}-2-(methylthio)pyridine-3-carboxamide]	64%	38%	57%
O=C(NCC1CCN(C[C@H]2COc3cccc(C(F)(F)F)c3O2)CC1)c1cccnc1 [Example 45, (S)-N-{[1-(8-trifluoromethyl-1,4-benzodioxan-2-ylmethyl)-4-piperidyl]methyl}pyridine-3-carboxamide]	80%	94%	97%
Cc1ncccc1C(=O)NCC1CCN(C[C@H]2COc3cccc(C(F)(F)F)c3O2)CC1 [Example 46, (S)-2-methyl-N-{[1-(8-trifluoromethyl-1,4-benzodioxan-2-ylmethyl)-4-piperidyl]methyl}pyridine-3-carboxamide]	86%	98%	104%
O=C(NCC1CCN(C[C@H]2COc3cccc(C(F)(F)F)c3O2)CC1)c1ccc(-n2cccc2)nc1 [Example 47, (S)-6-(1-pyrrolyl)-N-{[1-(8-trifluoromethyl-1,4-benzodioxan-2-ylmethyl)-4-piperidyl]methyl}pyridine-3-carboxamide]	75%	94%	100%
CSc1ncccc1C(=O)NCC1CCN(C[C@H]2COc3cccc(C(F)(F)F)c3O2)CC1 [Example 48, (S)-2-(methylthio)-N-{[1-(8-trifluoromethyl-1,4-benzodioxan-2-ylmethyl)-4-piperidyl]methyl}pyridine-3-carboxamide]	80%	93%	101%
O=C(NCC1CCN(C[C@H]2COc3cccc(C(F)(F)F)c3O2)CC1)c1cncc(Br)c1 [Example 49, (S)-5-bromo-N-{[1-(8-trifluoromethyl-1,4-benzodioxan-2-ylmethyl)-4-piperidyl]methyl}pyridine-3-carboxamide]	88%	93%	99%
O=C(NCC1CCN(C[C@H]2COc3cccc(Cl)c3O2)CC1)c1ccc(-n2cccc2)nc1 [Example 50, (S)-N-{[1-(8-chloro-1,4-benzodioxan-2-ylmethyl)-4-piperidyl)methyl}-6-(1-pyrrolyl)pyridine-3-carboxamide]	97%	98%	101%
CSc1ncccc1C(=O)NCC1CCN(C[C@H]2COc3cccc(Cl)c3O2)CC1 [Example 51]	95%	98%	101%
O=C(NCC1CCN(C[C@H]2COc3cccc(Cl)c3O2)CC1)c1cncc(Br)c1 [Example 52, (S)-5-bromo-N-{[1-(8-chloro-1,4-benzodioxan-2-ylmethyl)-4-piperidyl]methyl}pyridine-3-carboxamide]	95%	97%	101%
